Source: patent publication US10323078B2, “Isolated peptides and fragments thereof from fibrinogen for use as drugs, particularly in skin inflammatory diseases” (Universite Paris Descartes, priority 2015, dated 2019)

Assays:
MRC5 cells = assay: H2O2 production by P. acnes-stimulated MRC5; type: cell-based, human; conditions: small peptides 2.5 to 20 μM
ThP1 cells = assay: H2O2 production by P. acnes-stimulated ThP1; type: cell-based, human; conditions: small peptides 2.5 to 20 μM
Description: (§1) For experiences of stimulation with P. acnes, cells were incubated with the P. acnes suspension adjusted at the appropriate concentration, pre-treated for 1 h at 37° C. or not with fibrinogen recombinant peptides Fg1 and Fg2 at the concentrations 0.87, 1.75, 3.5 or 7 μM for the desired period of time at 37° C. in 5% CO2.
(§2) All cells lines (5·10^4 to 10^5 cells/well) were seeded in 96-well plates (Corning Costar, Brumath, France) and treated as previously described. After stimulation, cells were washed three times in PBS and incubated with 100 μl per wells of 5 μM DHE (for determination of O2^●−) or 5 μM H2-DCFDA (for determination of H2O2) for 30 min as described previously and fluorescence intensity was recorded every hour over a period of 5 h. Fluorescence excitation/emission maxima were for DHE: 480/610 nm and for H2-DCFDA: 507/525 nm. At the end of the experiment, the number of adherent cells was evaluated by the crystal violet assay as described below. O2^●−, and H2O2 were assayed by spectrofluorimetry on a Fusion spectrofluorimeter (PackardBell, Paris, France). Levels of ROS were calculated in each sample as follows: reactive oxygen species rate (arbitrary units/min/10^6 cells)=(fluorescence intensity [arbitrary units] at T5h—fluorescence intensity [arbitrary units] at To/300 minutes/number of adherent cells as measured by the crystal violet assay, and were expressed as arbitrary unit (A.U.).
(§3) To assess the efficacy of Fg1 recombinant peptide, the production of O2^∘− and H2O2 by HaCaT cells NHDK, THP-1, MRC5 and HDF stimulated by pretreated P. acnes strains 6919, RON and PIE was measured. The amount of ROS produced was compared to that produced by the stimulated cells with untreated bacteria. Production baseline was obtained by measuring ROS on unstimulated cells. The production of IL-1ß, IL-8, IL-12 and TNF-α was also measured in all conditions cited above. The measurement of the production of ROS is performed by spectrofluorimetry in the presence of specific fluorochromes directly on the monolayer cell. Measurement of cytokine production was performed in parallel on the cell culture supernatant.
(§4) Two sets of experiments were implemented: 1) The cells were stimulated (18 h at 37° C.) by P. acnes strains previously pretreated with Fg1 and Fg2 peptides at the final concentrations ranging from 0.87 to 7 μM for 1 h at 37° C.; and 2) The cells were pretreated first with Fg1 and Fg2 peptides at the final concentrations ranging from 0.87 to 7 μM for 24 h at 37° C. and stimulated (18 h at 37° C.) by P. acnes strains.
(§5) To assess the efficacy of the small Fg1-related peptide, the production of H2O2 by several cell lines (HaCaT, NHDK, THP-1, MRC5 and HDF) stimulated by three P. acnes strains 6919, RON and PIE was measured, in presence or not with the small peptides. The amount of H2O2 produced is compared to that produced by the stimulated cells with untreated bacteria. Production baseline is obtained by measuring H2O2 on unstimulated cells. The measurement of the production of H2O2 is performed by spectrofluorimetry in the presence of specific fluorochromes directly on the monolayer cell.
(§6) Two sets of experiments have been implemented: • I) The cells are stimulated (18 h at 37° C.) by P. acnes strains previously pretreated with Fg1.1, Fg1.2, Fg1.3, Fg1.4, and Fg1.5 small peptides at the final concentrations ranging from 2.5 to 20 μM for 1 h at 37° C.; • II) The cells are pretreated first with the five small peptides at the final concentrations ranging from 2.5 to 20 μM for 24 h at 37° C. and stimulated (18 h at 37° C.) by P. acnes strains.

NHDK cells = assay: H2O2 production by P. acnes-stimulated NHDK; type: cell-based, human; conditions: cells first pretreated, small peptides 2.5 to 20 μM
Description: as §1, §2, §3, §4, §5, §6

HDF cells = assay: H2O2 production by P. acnes-stimulated HDF; type: cell-based, human; conditions: cells first pretreated, small peptides 2.5 to 20 μM
Description: as §1, §2, §3, §4, §5, §6

[1] = system: HaCaT, NHDK, THP-1, MRC5 and HDF; assay: H2O2 production by cells stimulated with P. acnes, overall statement for the five cell lines; type: cell-based, human; conditions: pretreatment of P. acnes strains with small peptide 2.5 to 20 μM; five cell lines and three strains tested
Description: FIG. 17: Dose-dependent inhibition of H2O2 production by fibroblast pre-treated by small Fg1-generated peptides and stimulated by P. acnes. MRC5 cell were incubated for 24 h with small peptides Fg1.1 (light gray bar), Fg1.2 (horizontal line bar), Fg1.3 (hatched bar), Fg1.4 (dark gray bar), Fg1.5 (dotted bar) at concentrations ranging from 2.5 to 20 μM. Measurement of hydrogen peroxide production was realized by spectrofluorometry as described in Materials and Methods. Controls experiments were done with unstimulated MRC5 cell (white bar) and MRC5 stimulated with P. acnes (black bar). Data are means±S.D. of three separate experiments. Statistical significance is indicated by * (P<0.05), ** (P<0.01), *** (P<0.001), and **** (P<0.0001), respectively.
as §2, §5, §6
FIG. 17 corresponds to the results obtained with the P. acnes RON strain on the fibroblast MRCS cell line and are representative of the results obtained with all P. acnes and cells lines tested (Table 6).

HaCaT cells = assay: H2O2 production by P. acnes-stimulated HaCaT (spectrofluorimetry, H2-DCFDA); type: cell-based, human; conditions: small peptides 2.5 to 20 μM
Description: as §1, §2, §3, §4, §5, §6

[2] = system: P. acnes surface proteins; assay: Binding of biotinylated ECM ligands to immobilized P. acnes surface proteins; parameters: species or system Propionibacterium acnes; conditions: 25 μg/ml of protein immobilized per well; various quantity of biotinylated Fg and Collagen I
Description: FIG. 2: Binding of P. acnes surface protein to purified human fibrinogen. (A) P. acnes surface proteins (0.8 to 50 μg/ml) were immobilized onto a 96-well polystyrene plate and probed with biotinylated fibrinogen (0.1 μg/ml) for 2 h at room temperature. (B) P. acnes surface proteins (25 μg/ml) were immobilized onto a 96-well polystyrene plate and probed with various concentrations of biotinylated fibrinogen ranging from 0.1 to 16 μg/ml for 2 h at room temperature. Bound biotinylated fibrinogen were detected with HRP-streptavidine as described in Materials and Methods.
To characterize the interaction between P. acnes and ligands, we used biotinylated molecules in quantitative and qualitative assays. In a first set of assays, ECM ligands (fibrinogen, collagens I, IV, VI and VIII) were used as labelled proteins with biotin. In a second set of assays, P. acnes surface proteins (total extract and purified Pfg) were biotinylated. For quantitative analysis, unlabeled protein were diluted into 50 mM carbonate-bicarbonate, pH 9.6 buffer to yield a protein concentration ranging from 0.01 to 50 μg/ml, and then immobilized to 96-well polystyrene plates at 4° C. overnight. […] After washing, bound peroxidase was detected using the chromogenic peroxidase substrate ABTS. […] Binding activity was detected by incubating the membranes with 20 ml of PBT containing biotinylated proteins (0.1 μg/ml) for 2 h at room temperature followed by three washes with PBT. Bound biotinylated proteins were detected by incubating the membrane with peroxidase conjugated to streptavidin (0.5 μg/ml in PBT) for 1 h at room temperature. After washing, bound peroxidase activity was detected using 3,3′-diaminobenzidine in the presence of CoCl2 and H2O2 (Harlow and Lane, 1988).
In order to identify P. acnes surface protein recognized by ECM ligands, we used the most commons ECM proteins recognize by skin related bacteria like collagens and fibrinogen. […] To identify surface proteins, P. acnes total heat protein extracts were electrophoretically separated and detected by silver staining (FIG. 1B). […]

[3] = P. acnes 6919, set I, bacteria first pretreated
[4] = P. acnes 6919, set II, cells first pretreated
[5] = P. acnes PIE, set I, bacteria first pretreated
[6] = P. acnes PIE, set II, cells first pretreated
[7] = P. acnes RON, set I, bacteria first pretreated
[8] = P. acnes RON, set II, cells first pretreated

Row | Substance | Inhibition of Hydrogen peroxide (H2O2) production (MRC5 cells; [3]) | Inhibition of Hydrogen peroxide (H2O2) production (MRC5 cells; [4]) | Inhibition of Hydrogen peroxide (H2O2) production (MRC5 cells; [5]) | Inhibition of Hydrogen peroxide (H2O2) production (MRC5 cells; [6]) | Inhibition of Hydrogen peroxide (H2O2) production (MRC5 cells; [7]) | Inhibition of Hydrogen peroxide (H2O2) production (ThP1 cells; [3]) | Inhibition of Hydrogen peroxide (H2O2) production (ThP1 cells; [4]) | Inhibition of Hydrogen peroxide (H2O2) production (ThP1 cells; [5]) | Inhibition of Hydrogen peroxide (H2O2) production (ThP1 cells; [6]) | Inhibition of Hydrogen peroxide (H2O2) production (ThP1 cells; [7]) | Inhibition of Hydrogen peroxide (H2O2) production (ThP1 cells; [8]) | Inhibition of Hydrogen peroxide (H2O2) production (NHDK cells; P. acnes 6919, set II) | Inhibition of Hydrogen peroxide (H2O2) production (NHDK cells; P. acnes PIE, set II) | Inhibition of Hydrogen peroxide (H2O2) production (NHDK cells; P. acnes RON, set II) | Inhibition of Hydrogen peroxide (H2O2) production (HDF cells; P. acnes 6919, set II) | Inhibition of Hydrogen peroxide (H2O2) production (HDF cells; P. acnes PIE, set II) | Inhibition of Hydrogen peroxide (H2O2) production (HDF cells; P. acnes RON, set II) | Inhibition of H2O2 production [1] | Inhibition of Hydrogen peroxide (H2O2) production (HaCaT cells; [3]) | Inhibition of Hydrogen peroxide (H2O2) production (HaCaT cells; [4]) | other results
1 | MKRMVSWSFHKLKTMKHLLLLLLCVFLVKSQGVND (fragment Fg1.1) [small peptide generated from Fg1] | pos | pos | pos | pos | pos | pos | pos | pos | pos | pos | pos | pos | pos | pos | pos | pos | pos | inhibits the production of H2O2 in a dose-dependent manner | pos | pos | Inhibition of Hydrogen peroxide (H2O2) production (HaCaT cells; [5]): pos; Inhibition of Hydrogen peroxide (H2O2) production (HaCaT cells; [6]): pos; Inhibition of Hydrogen peroxide (H2O2) production (HaCaT cells; [7]): pos
2 | LLLCVFLVKSQGVNDNEEGFFSARGHRPLD (fragment Fg1.4) [small peptide generated from Fg1, overlapping Fg1.1 and Fg1.2] | pos | pos | pos | pos | pos | pos | pos | pos | pos | pos | pos | pos | pos | pos | pos | pos | pos | inhibits the production of H2O2 in a dose-dependent manner | pos | pos | Inhibition of Hydrogen peroxide (H2O2) production (HaCaT cells; [5]): pos; Inhibition of Hydrogen peroxide (H2O2) production (HaCaT cells; [6]): pos; Inhibition of Hydrogen peroxide (H2O2) production (HaCaT cells; [7]): pos
3 | collagen I: commercial ECM ligand, biotinylated, tested for binding to P. acnes surface proteins [reference compound] | – | – | – | – | – | – | – | – | – | – | – | – | – | – | – | – | – | – | – | – | Binding activity of biotinylated ligand to immobilized P. acnes total surface protein [2]: No binding activity
